In the supplement of paper PMC5908809:

How the values were obtained:
[1] = test system: normal NK cells expanded with K562-aAPC; experiment: percent inhibition of viability; higher = more inhibition; settings: 72 h, IL-2 2.5 ng/mL
Procedure: (§1)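 Drug sensitivity and resistance testing on K562-aAPC-expanded normal NK cells: 5 concentrations (10-fold steps over a 10,000-fold range), 72 h at 37 °C, viability by CellTiter-Glo normalised to DMSO and benzethonium chloride controls; DSS from the fitted curve.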

DERL-7 (IL-2 2.5 ng/mL) [2] = experiment: as above; settings: 72 h
IMC-1 (IL-2 20 ng/mL) [3] = experiment: as above; settings: 72 h
KAI3 (IL-2 2.5 ng/mL) [4] = experiment: as above; settings: 72 h
KHYG-1 (IL-2 2.5 ng/mL) [5] = experiment: as above; settings: 72 h
NK-92 (IL-2 2.5 ng/mL) [6] = experiment: as above; settings: 72 h
NK-YS (IL-2 2.5 ng/mL) [7] = experiment: as above; settings: 72 h
NKL (IL-2 2.5 ng/mL) [8] = experiment: as above; settings: 72 h
SNK-6 (IL-2 2.5 ng/mL) [9] = experiment: as above; settings: 72 h
YT (IL-2 2.5 ng/mL) [10] = experiment: as above; settings: 72 h
[11] = test system: normal primary NK cells, pool 1 (3 donors) (IL-2 2.5 ng/mL); experiment: as above; settings: 72 h
[12] = test system: normal primary NK cells, pool 1 (3 donors), resting (IL-2 0 ng/mL); experiment: as above; settings: 72 h
[13] = test system: normal primary NK cells, pool 2 (3 donors) (IL-2 2.5 ng/mL); experiment: as above; settings: 72 h
[14] = test system: normal primary NK cells, pool 3 (3 donors) (IL-2 2.5 ng/mL); experiment: as above; settings: 72 h
[15] = test system: normal NK cells expanded with K562-aAPC; experiment: drug sensitivity score (DSS) (DSS units); higher = more sensitive; extreme values may be limits of the assay; settings: 72 h; IL-2 2.5 ng/mL
Procedure: as §1

DERL-7 (IL-2 2.5 ng/mL) [16] = experiment: as above; settings: 72 h
IMC-1 (IL-2 20 ng/mL) [17] = experiment: as above; settings: 72 h
KAI3 (IL-2 2.5 ng/mL) [18] = experiment: as above; settings: 72 h
KHYG-1 (IL-2 2.5 ng/mL) [19] = experiment: as above; settings: 72 h
NK-92 (IL-2 2.5 ng/mL) [20] = experiment: as above; settings: 72 h
NK-YS (IL-2 2.5 ng/mL) [21] = experiment: as above; settings: 72 h
NKL (IL-2 2.5 ng/mL) [22] = experiment: as above; settings: 72 h
SNK-6 (IL-2 2.5 ng/mL) [23] = experiment: as above; settings: 72 h
YT (IL-2 2.5 ng/mL) [24] = experiment: as above; settings: 72 h
[25] = test system: normal primary NK cells, pool 1 (3 donors) (IL-2 2.5 ng/mL); experiment: as above; settings: 72 h
[26] = test system: normal primary NK cells, pool 1 (3 donors), resting (IL-2 0 ng/mL); experiment: as above; settings: 72 h
[27] = test system: normal primary NK cells, pool 2 (3 donors) (IL-2 2.5 ng/mL); experiment: as above; settings: 72 h
[28] = test system: normal primary NK cells, pool 3 (3 donors) (IL-2 2.5 ng/mL); experiment: as above; settings: 72 h

CC(C)Oc1ccc(C(=O)N[C@H](CNC(=O)CN(C)C)Cc2ccc(-c3cn4cccc([C@H](C)O)c4n3)cc2)cc1Cl (max concentration tested 10000 nM)
percent inhibition of viability [%]
Settings | 1 nM | 10 nM | 100 nM | 1000 nM | 10000 nM
DERL-7 (IL-2 2.5 ng/mL) [2] | 3.17 | 0.65 | 70.1 | 99.2 | 98.2
IMC-1 (IL-2 20 ng/mL) [3] | -5.65 | 4.24 | 8.53 | 95.8 | 99.2
KAI3 (IL-2 2.5 ng/mL) [4] | -6.47 | -5.43 | 37.5 | 53.3 | 103
KHYG-1 (IL-2 2.5 ng/mL) [5] | -0.23 | 3.89 | 37.2 | 105 | 106
NK-92 (IL-2 2.5 ng/mL) [6] | 0.16 | 3.89 | 18.2 | 96.7 | 106
NK-YS (IL-2 2.5 ng/mL) [7] | -1.16 | 1.87 | 67.4 | 78.2 | 89.7
NKL (IL-2 2.5 ng/mL) [8] | 2.24 | 7.12 | 66.4 | 93.5 | 91.1
SNK-6 (IL-2 2.5 ng/mL) [9] | 1.52 | 24 | 74.4 | 84.6 | 89.7
YT (IL-2 2.5 ng/mL) [10] | 1.62 | 7.48 | 76.3 | 101 | 104
[1] | 5.14 | 3.61 | 10.7 | 62 | 88.4
[11] | -2.11 | -10.1 | 1.46 | -2.94 | 28.1
[12] | -16.4 | -27 | -21.3 | -33.1 | 54.9
[13] | -5.03 | 7.38 | 7.4 | 6.97 | 31
[14] | -8.24 | -2.71 | 16.4 | 4.47 | 33.7

Settings | drug sensitivity score
DERL-7 (IL-2 2.5 ng/mL) [16] | 25.9
IMC-1 (IL-2 20 ng/mL) [17] | 18.9
KAI3 (IL-2 2.5 ng/mL) [18] | 15.1
KHYG-1 (IL-2 2.5 ng/mL) [19] | 23.1
NK-92 (IL-2 2.5 ng/mL) [20] | 20.2
NK-YS (IL-2 2.5 ng/mL) [21] | 24.4
NKL (IL-2 2.5 ng/mL) [22] | 25.3
SNK-6 (IL-2 2.5 ng/mL) [23] | 27.8
YT (IL-2 2.5 ng/mL) [24] | 27.8
[15] | 13.2
[25] | 0.98
[26] | 1.92
[27] | 2.26
[28] | 2.31

CN(C)c1nc(N(C)C)nc(N(C)C)n1 [Altretamine] (max concentration tested 10000 nM)
percent inhibition of viability [%]
Settings | 1 nM | 10 nM | 100 nM | 1000 nM | 10000 nM
DERL-7 (IL-2 2.5 ng/mL) [2] | -4.53 | -2.77 | 0.97 | 2.22 | 0.81
IMC-1 (IL-2 20 ng/mL) [3] | -2.71 | 0.47 | -4.67 | -2.63 | -6.93
KAI3 (IL-2 2.5 ng/mL) [4] | 3.52 | 10.7 | 11.4 | 24.1 | 24.6
KHYG-1 (IL-2 2.5 ng/mL) [5] | -7.38 | -7.34 | -6.09 | -2.99 | -6.61
NK-92 (IL-2 2.5 ng/mL) [6] | -14.2 | -12.6 | -6.86 | -1.41 | -0.2
NK-YS (IL-2 2.5 ng/mL) [7] | 1.59 | -1.58 | 1.2 | 11.7 | 9.31
NKL (IL-2 2.5 ng/mL) [8] | -10 | -9.91 | -10.4 | 1.45 | 1.87
SNK-6 (IL-2 2.5 ng/mL) [9] | -4.42 | -8.89 | -0.39 | 6.56 | -2.57
YT (IL-2 2.5 ng/mL) [10] | -3.72 | -5.67 | -6.12 | -0.77 | -8.31
[1] | -2.99 | -3.76 | 0.47 | -2.02 | -2.72
[11] | -5.08 | -6.48 | -0.04 | -1.59 | 3.54
[12] | -0.78 | -0.59 | 9.13 | 16.1 | 26
[13] | -3.77 | -3.94 | -0.13 | 0 | 1.61
[14] | -9.05 | -7.82 | -1.85 | -3.99 | 3.69

Settings | drug sensitivity score
DERL-7 (IL-2 2.5 ng/mL) [16] | 0
IMC-1 (IL-2 20 ng/mL) [17] | 0
KAI3 (IL-2 2.5 ng/mL) [18] | 4.61
KHYG-1 (IL-2 2.5 ng/mL) [19] | 0
NK-92 (IL-2 2.5 ng/mL) [20] | 0
NK-YS (IL-2 2.5 ng/mL) [21] | 0.51
NKL (IL-2 2.5 ng/mL) [22] | 0
SNK-6 (IL-2 2.5 ng/mL) [23] | 0
YT (IL-2 2.5 ng/mL) [24] | 0
[15] | 0
[25] | 0
[26] | 2.84
[27] | 0
[28] | 0

CCN1CCN(Cc2ccc(-c3cc4c(N[C@H](C)c5ccccc5)ncnc4[nH]3)cc2)CC1 [NVP-AEE788] (max concentration tested 2500 nM)
percent inhibition of viability [%]
Settings | 0.25 nM | 2.5 nM | 25 nM | 250 nM | 2500 nM
DERL-7 (IL-2 2.5 ng/mL) [2] | -0.87 | 0.92 | 1.23 | 5.24 | 19.9
IMC-1 (IL-2 20 ng/mL) [3] | -8.78 | -2.35 | 1.14 | -4.8 | 5.2
KAI3 (IL-2 2.5 ng/mL) [4] | -3.14 | -7.58 | -0.99 | 5.51 | 26.6
KHYG-1 (IL-2 2.5 ng/mL) [5] | -7.12 | -8.65 | -3.24 | -0.41 | 22.7
NK-92 (IL-2 2.5 ng/mL) [6] | -16 | -4.1 | -2.66 | 13.6 | 51
NK-YS (IL-2 2.5 ng/mL) [7] | -8.61 | -8.85 | -3.03 | -1.23 | 17.7
NKL (IL-2 2.5 ng/mL) [8] | -2.78 | 3.21 | 7.84 | 20 | 48.2
SNK-6 (IL-2 2.5 ng/mL) [9] | -12.2 | -14.1 | -23.9 | -6.92 | 9.17
YT (IL-2 2.5 ng/mL) [10] | -6.59 | -5.53 | -3.48 | 7.61 | 27.4
[1] | -8.59 | -5.81 | -0.99 | 4.64 | 27.8
[11] | 4.7 | 13.8 | 6.81 | 9.36 | 16.1
[12] | -1.29 | 14.4 | 9.7 | 11.1 | 5.88
[13] | -10.9 | 9.29 | 3.66 | 5.84 | 2.8
[14] | -4.61 | 9.35 | 9.18 | 5.89 | -1.16

Settings | drug sensitivity score
DERL-7 (IL-2 2.5 ng/mL) [16] | 1.24
IMC-1 (IL-2 20 ng/mL) [17] | 0
KAI3 (IL-2 2.5 ng/mL) [18] | 1.9
KHYG-1 (IL-2 2.5 ng/mL) [19] | 0.75
NK-92 (IL-2 2.5 ng/mL) [20] | 4.8
NK-YS (IL-2 2.5 ng/mL) [21] | 0.35
NKL (IL-2 2.5 ng/mL) [22] | 4.63
SNK-6 (IL-2 2.5 ng/mL) [23] | 0
YT (IL-2 2.5 ng/mL) [24] | 2.2
[15] | 1.88
[25] | 0
[26] | 0.04
[27] | 0
[28] | 0
